The numbers were not newly measured in patent publication US20160151380A1, “THERAPIES FOR DISEASES CAUSED BY ARTHROPOD-BORNE PARASITES” (THE REGENTS OF THE UNIVERSITY OF CALIFORNIA, priority 2013, published 2016), which cites them from elsewhere.

Common to all, as to details: cited from earlier work
Series [1] concerns the target MAPK14 p38 (Homo sapiens, UniProt Q16539).
For series [2], the target named is JNK3 (Homo sapiens, UniProt P53779).
The target in series [3] is JNK1 (Homo sapiens, UniProt P45983).
Sequence of JNK1 (P45983 whole entry, species assumed): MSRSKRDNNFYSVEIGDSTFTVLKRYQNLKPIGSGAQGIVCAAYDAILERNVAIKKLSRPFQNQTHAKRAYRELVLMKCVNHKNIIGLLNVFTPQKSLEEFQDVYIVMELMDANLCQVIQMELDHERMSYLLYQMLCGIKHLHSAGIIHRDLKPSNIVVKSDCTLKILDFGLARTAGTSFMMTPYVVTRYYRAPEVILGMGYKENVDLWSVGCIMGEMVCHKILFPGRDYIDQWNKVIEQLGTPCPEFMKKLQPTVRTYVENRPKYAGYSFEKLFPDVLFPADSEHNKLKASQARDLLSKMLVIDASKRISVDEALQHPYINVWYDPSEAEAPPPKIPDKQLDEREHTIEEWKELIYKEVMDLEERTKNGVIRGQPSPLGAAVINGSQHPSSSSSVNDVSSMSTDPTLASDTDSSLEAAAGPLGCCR

Sequence of MAPK14 p38 (Q16539 whole entry): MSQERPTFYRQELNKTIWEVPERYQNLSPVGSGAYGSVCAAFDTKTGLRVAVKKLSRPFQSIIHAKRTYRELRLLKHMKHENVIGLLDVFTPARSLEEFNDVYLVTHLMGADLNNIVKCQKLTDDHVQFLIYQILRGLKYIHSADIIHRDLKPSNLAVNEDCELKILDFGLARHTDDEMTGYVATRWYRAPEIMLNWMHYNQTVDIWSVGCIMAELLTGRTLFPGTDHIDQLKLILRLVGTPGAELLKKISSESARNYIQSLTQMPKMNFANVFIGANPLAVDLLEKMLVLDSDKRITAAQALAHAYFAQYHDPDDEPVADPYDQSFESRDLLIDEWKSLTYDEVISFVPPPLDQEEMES
Sequence of JNK3 (P53779 whole entry, species assumed): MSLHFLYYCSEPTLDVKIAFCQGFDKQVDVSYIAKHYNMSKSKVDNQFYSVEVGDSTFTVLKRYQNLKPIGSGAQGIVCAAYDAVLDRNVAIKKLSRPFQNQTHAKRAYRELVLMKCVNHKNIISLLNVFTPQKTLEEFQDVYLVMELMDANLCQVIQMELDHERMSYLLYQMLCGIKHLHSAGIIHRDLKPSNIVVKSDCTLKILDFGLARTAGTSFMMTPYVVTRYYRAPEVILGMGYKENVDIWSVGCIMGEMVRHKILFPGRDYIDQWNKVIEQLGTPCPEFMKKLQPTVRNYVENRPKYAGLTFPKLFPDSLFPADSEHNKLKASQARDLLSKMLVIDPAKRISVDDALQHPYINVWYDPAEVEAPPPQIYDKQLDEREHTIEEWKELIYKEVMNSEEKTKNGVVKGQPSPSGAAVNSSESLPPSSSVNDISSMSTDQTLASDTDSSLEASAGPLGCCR

What is called IC50 is the concentration at which inhibition is half-maximal. As for `Cc1ccc(C(=O)Nc2cccc(C(F)(F)F)c2)cc1-c1ccc2nc(N)ncc2c1` [2ofv], the IC50 in series [1] was 6 nM.

Take `Cc1n[nH]c2ccc(-c3cncc(OC[C@@H](N)Cc4c[nH]c5ccccc45)c3)cc12` [A 443654]: the IC50 in series [2] and in series [3] was > 900 nM each time.

On to `Cc1cccc(-c2nn(C(=S)Nc3ccccc3)cc2-c2ccnc3ccccc23)n1` [A-83-01], for which the IC50 in series [1] was 100 nM.

`COc1cc2ncnc(Nc3cccc(Cl)c3)c2cc1OC` [AG1478]: in series [1], the 50% inhibitory concentration (IC50) was 560 nM.

As for `CC1=C2N=C(C=C3NC(=Cc4[nH]c(c(CCC(=O)O)c4CC(=O)O)Cc4[nH]c1c(CC(=O)O)c4CCC(=O)O)C(CCC(=O)O)C3(C)CC(=O)O)C(CCC(=O)O)C2(C)CC(=O)O` (stereo not shown) [BX517], the IC50 in series [1] and in series [3] was > 900 nM each time.

Regarding `CCNc1nnc2ccc(-c3ocnc3-c3ccc(F)cc3)cn12` [CHEMBL213451], the half-maximal inhibitory concentration (IC50) in series [1] is 7.6 nM.

As to `CC(C)c1nnc2ccc(-c3ocnc3-c3ccc(F)cc3Cl)cn12` [CHEMBL215652], in series [1], the IC50 is 2.5 nM.

As a reminder, the Ki is a dissociation constant, usually derived from enzyme kinetics or from competition with a known ligand. For `Cc1ccc(C(=O)Nc2ccon2)cc1Nc1ncnc(NC2CCCC2)c1C#N` [CHEMBL383172], in series [1], the Ki was 1.6 nM.

In general, Kd refers to a measure of binding affinity in units of concentration. Turning to `Cc1ccc(-n2nc(C(C)(C)C)cc2NC(=O)Nc2cccc3ccccc23)cc1` [CHEMBL420047], the Kd in series [1] is 1 nM.

As for `Cc1ccc(NC(=O)c2cccc(N3CCCCC3)c2)cc1-c1ccc(C(=O)NCC2CC2)cc1` [CHEMBL1964275], the Kd in series [1] was < 10 nM.

Consider `COCCOc1ccc2c(c1)ncn2-c1ccc2cccc(N3CCC(N)CC3)c2n1` [CP673451], for which the IC50 in series [3] was > 1000 nM.

With `COc1cc(N2CCOCC2)ccc1Nc1ncc(F)c(Nc2ccccc2NS(C)(=O)=O)n1` [CZC-25146], the IC50 in series [2] and in series [3] was < 600 nM throughout.

As for `O=C(O)c1ccc(-c2c[nH]c3ncc(-c4ccccc4)cc23)cc1C1CCCC1` [GSK650394A], the IC50 in series [2] was > 600 nM.

For the compound `Cn1c2ccccc2c2c3c(c4c5ccccc5n(CCC#N)c4c21)CNC3=O` [Go6976, 5,6,7,13-Tetrahydro-13-methyl-5-oxo-12H-indolo[2,3-a]pyrrolo[3,4-c]carbazole-12-propa-nenitrile], in series [2], the IC50 is > 300 nM.

With `CCS(=O)(=O)Nc1ccc2c(c1)/C(=C(/Nc1ccc(CN3CCCCC3)cc1)c1ccccc1)C(=O)N2` [Hesperadin], the Kd in series [2] and in series [3] was < 10 nM each time.

As for `NC(=O)Nc1sc(-c2ccc(F)cc2)cc1C(N)=O` [IKK-2 Inhibitor IV], the Kd in series [3] was < 1250 nM.

With `O=C(c1ccc(Nc2nccc(-c3cc4ccccc4s3)n2)cc1)N1CCC(N2CCCC2)CC1` [K00596a], the IC50 in series [3] is 100 nM.

As to `CCCCCCOC(=O)[C@]1(O)C[C@@H]2O[C@@]1(C)n1c3ccccc3c3c4c(c5c6ccccc6n2c5c31)C(=O)NC4` [KT5720], the IC50 in series [3] is < 800 nM.

As to `BrCBr` [Kinome_3024], the Ki in series [3] is 3 nM.

Turning to `CCCC(=O)NC1=NC2C(N=CN2C2OC3OP(=O)(O)OC3C2OC(=O)CCC)C(=O)N1` (stereo not shown) [Kinome_3027], the Ki in series [2] is 18 nM; in series [3], 1 nM.

`CCCC(=O)NC1=NC2C(N=CN2C2OC3OP(=O)(O)OC3C2OC(=O)CCC)C(=O)N1` (stereo not shown) [Kinome_3028]: the Ki in series [3] is 3 nM.

For the compound `NC(N)=NC(=O)Cc1c(Cl)cccc1Cl` [Kinome_3519], in series [1], the Ki was 0.2 nM.

With `c1ccc(-c2[nH]ncc2-c2ccnc3ccccc23)nc1` [LY364947], in series [1], the IC50 is 740 nM.

On to `CCN(CC)C(=O)c1ccc(Nc2nc(OCC3CCCCC3)c3[nH]cnc3n2)cc1` [NU6140], for which the IC50 in series [3] is 500 nM.

Consider `O=C1c2ccccc2-c2nc3nnnn3nc21` [PDK1/Akt/Flt Inhibitor], for which the IC50 in series [2] was 500 nM.

Consider `CC(C)(C)n1nc(Cc2cccc3ccccc23)c2c(N)ncnc21` [PP1 Analog II; 1NM-PP1], for which the IC50 in series [3] was 140 nM.

As for `CNC(=O)c1cc(Oc2ccc(NC(=O)Nc3ccc(Cl)c(C(F)(F)F)c3)c(F)c2)ccn1` [Regorafenib], the IC50 in series [1] is < 100 nM.

In the case of `CN(C)C[C@@H]1CCn2cc(c3ccccc32)C2=C(C(=O)NC2=O)c2cn(c3ccccc23)CCO1` [Ruboxistaurin], the IC50 in series [2] was > 900 nM.

For `Cc1cc(F)ccc1-c1nc(NC(CO)CO)nc2c1ccc(=O)n2-c1c(F)cccc1F` [SB681323], the IC50 in series [1] was < 100 nM.

As to `CN1CCC(CNc2ccc3ncc(-c4cccc(OC(F)(F)F)c4)n3n2)CC1` [SGI-1776], the IC50 in series [2] is > 1000 nM.

In the case of `Oc1cccc2cccnc12` [SPDD01923], the IC50 in series [1] was 0.11 nM.

Turning to `O=C(O)c1ccc2c(c1)nc(Nc1cccc(Cl)c1)c1ccncc12` [Silmitasertib], the IC50 in series [2] and in series [3] was > 1000 nM throughout.

For the compound `O=C1NCc2c1c1c3ccccc3[nH]c1c1[nH]c3ccccc3c21` [Staurosporine aglycone], the IC50 in series [2] and in series [3] was < 100 nM in each case.

Turning to `CN(C)c1ccc(C(=N)c2ccc(N(C)C)cc2)cc1` [SureCN3936664], the IC50 in series [1] was 5 nM.

In the case of `CCCCCCCCCCCCCC(=NO)c1cc(OC)ccc1O` [SureCN4219451], the IC50 in series [1] is 1.8 nM.

With `CCC(C)C(C(=O)O)N1C(=O)C(=Cc2c(F)cccc2Cl)SC1=S` (stereo not shown) [SureCN4762364], the IC50 in series [1] was 3.2 nM.

On to `O=C(COC(=O)C1COc2ccccc2O1)Nc1cc(C(F)(F)F)ccc1N1CCOCC1` (stereo not shown) [SureCN4875304], for which the IC50 in series [1] is 540 nM.

For the compound `COc1ccc2c(Oc3ccc(NC(=O)c4c(C)n(CC(C)(C)O)n(-c5ccccc5)c4=O)nc3)ccnc2c1` [SureCN5495613], in series [1], the IC50 is 9 nM.

With `CCOC(=O)Cn1nc(C(F)F)cc1C` [SureCN7018367], the values for the Kd in series [2] and in series [3] were < 10 nM and < 1250 nM, respectively.

In the case of `CN1CC=C(c2c[nH]c3ccc(-c4cccs4)cc23)CC1` [SureCN10063060], in series [3], the Ki is > 1000 nM.

For `COc1ccc(-c2cc3nccn3c(Nc3ncccc3C(N)=O)n2)cc1OC` [Syk Inhibitor IV], the IC50 in series [2] is < 400 nM.

`CNC(=O)[C@@]1(N)C[C@H]2O[C@]1(C)n1c3ccccc3c3c4c(c5c6ccccc6n2c5c31)C(=O)NC4` [TTT-3002]: the concentration for half-maximal inhibition (IC50) in series [2] was < 60 nM; in series [3] it was < 40 nM.

As to `Cc1ccc(NC(=O)c2cccc(N(C)C)c2)cc1NC(=O)c1ccc(O)cc1` [ZM336372], the IC50 in series [1] is 180 nM.
